Test results taken from publication PMC12040169 (PLOS Biology, 2025).

Assay: in vitro
Settings: human, hela cells, % viability

| SMILES | viability at 28.5 h, 10 µM [%] |
| --- | --- |
| O=S(=O)(c1ccccc1)c1nc(-c2ccco2)oc1NCCCn1ccnc1 [CBK267670] | 87.1 |
| O=S(=O)(c1ccc(F)cc1)c1nc(-c2cccs2)oc1N1CCN(Cc2ccccc2)CC1 [CBK267672] | 89.7 |
| COc1ccc(C2CC(c3nc4ccccc4[nH]3)=NN2C(=O)CCN2CCCCC2)cc1 (stereo not drawn) [CBK267673] | 99.8 |
| Cc1nonc1OCCN1CCN(c2cc3c(cc2[N+](=O)[O-])n(C)c(=O)n3C)CC1 [CBK267676] | 104 |
| CC(=O)Nc1ccccc1NC(=O)CCCN1C(=O)CCC1=O [CBK267681] | 92.8 |
| CN(CC(=O)O/N=C(\N)c1cccnc1)S(=O)(=O)c1ccccc1 [CBK267684] | 94.3 |
| NC(=O)CSc1nnc(COc2cccc(Cl)c2)n1-c1ccccc1 [CBK267685] | 88.9 |
| O=C(Cn1c(=O)oc2ccccc21)Nc1ccc(S(=O)(=O)Nc2nccs2)cc1 [CBK267686] | 80.2 |
| Nc1nnc(SCCN2C(=O)c3ccccc3S2(=O)=O)s1 [CBK267688] | 88.6 |
| CC(=O)Nc1ccc(S(=O)(=O)NC2(C(F)(F)F)NC(=O)N(c3ccc(Cl)cc3)C2=O)cc1 (stereo not drawn) [CBK267689] | 95.7 |
| Cc1ccc(-c2cnc3ccccc3n2)cc1NC(=O)c1ccccc1S(=O)(=O)c1ccc([N+](=O)[O-])cc1 [CBK267690] | 110 |
| O=C(CSc1nnc(-c2ccccc2Cl)[nH]1)c1ccc(O)c(O)c1 [CBK267693] | 78.3 |
| c1ccc2[nH]c(CCCCCc3nc4ccccc4[nH]3)nc2c1 [CBK267694] | 107 |
| COc1ccc(CNC(=O)C2CC=CCC2C(=O)O)cc1OC (stereo not drawn) [CBK267695] | 86.6 |
| CN(C)S(=O)(=O)NNC(=O)c1c[nH]c2ccccc12 [CBK267698] | 102 |
| CC(N)C(=O)Nc1ccccc1-c1ccccc1 (stereo not drawn) [CBK267700] | 98.7 |
| CC(C)(O)C#Cc1ccccc1C(=O)NC(Cc1c[nH]c2ccccc12)C(=O)O (stereo not drawn) [CBK267701] | 80.4 |
| O=C(NC(Cc1ccccc1)C(=O)O)c1ccc(C#CC2(O)CCCCC2)cc1 (stereo not drawn) [CBK267702] | 93 |
| CC(C)(O)C#Cc1ccc(C(=O)NC(Cc2c[nH]c3ccccc23)C(=O)O)cc1 (stereo not drawn) [CBK267703] | 96.5 |
| CC(C)(O)C#Cc1ccc(C(=O)NCCC(=O)O)s1 [CBK267704] | 97.1 |
| Cn1c(=O)c2c(ncn2CCCN)n(C)c1=O [CBK267707C] | 91.8 |

| SMILES | viability at 28.5 h, 10 µM [%] |
| --- | --- |
| Cn1c(=O)c2c(nc(N3CCOCC3)n2CC/N=C2/CCCCCN2)n(C)c1=O [CBK267708C] | 85.7 |
| Cc1sc(C(=O)Nc2ccc3ccccc3c2)cc1CC(=O)O [CBK267710] | 96.4 |
| Nc1ccc(/C=C/c2cccc(C(=O)O)n2)cc1 [CBK267711] | 89.7 |
| CN(C)CCn1c2c(c3ccccc31)CCCn1cnnc1-2 [CBK267712C] | 97.2 |
| CCCCOc1ccc(-c2nc(SCC(=O)O)c3c4c(sc3n2)COC(C)(C)C4)cc1 [CBK267716] | 99.1 |
| Cc1c(Cl)ccc2c(C(=O)Nc3ccc(S(=O)(=O)N4CCOCC4)cc3)cc(-c3cccnc3)nc12 [CBK267718] | 85.5 |
| O=C(c1cc(-c2ccncc2)nc2ccc(Cl)cc12)N1CCN(CCc2ccccc2)CC1 [CBK267719] | 86.6 |
| O=C(Nc1ccc(S(=O)(=O)Nc2nccs2)cc1)c1cc(-c2cccnc2)nc2ccc(Cl)cc12 [CBK267721] | 105 |
| Cc1cc(C)c2nc(-c3ccccn3)cc(C(=O)Nc3cccc(Cn4cccn4)c3)c2c1 [CBK267723] | 90.4 |
| Cc1cc(C)c2nc(-c3cccnc3)cc(C(=O)N3CCN(S(=O)(=O)c4ccc(F)cc4)CC3)c2c1 [CBK267726] | 95 |
| CCNS(=O)(=O)c1ccc(NC(=O)c2cc(-c3ccccn3)nc3c(C)c(C)ccc23)cc1 [CBK267733] | 97.3 |
| Cc1ccc(-c2cc(C(=O)NCCCN3CCOCC3)c3cc(Cl)ccc3n2)o1 [CBK267737] | 108 |
| COc1ccc(S(=O)(=O)N2CCN(C(=O)c3cc(-c4ccncc4)nc4c(C)c(Cl)ccc34)CC2)cc1 [CBK267739] | 92.6 |
| Cc1sc(NC(=O)c2cc(-c3ccncc3)nc3ccc(Cl)cc23)c(C#N)c1C [CBK267742] | 87.7 |
| Cc1ccc(-c2cc(C(=O)Nc3ccc(S(N)(=O)=O)cc3)c3ccc(Cl)c(C)c3n2)cc1 [CBK267745] | 111 |
| COc1ccc(NC(=O)c2cc(-c3cccnc3)nc3c(C)c(C)ccc23)c(OC)c1 [CBK267746] | 96.2 |
| Cc1ccc2c(C(=O)Nc3sc4c(c3C(N)=O)CCCCC4)cc(-c3ccccn3)nc2c1C [CBK267749] | 94 |
| COC(=O)c1ccsc1NC(=O)c1cc(-c2ccc(C)o2)nc2ccc(Br)cc12 [CBK267752] | 86.7 |
| COc1ccc(-c2nc3ccc(C)cc3c(C(=O)NCCc3ccc(S(N)(=O)=O)cc3)c2C)cc1 [CBK267753] | 123 |
| Cc1cc(C(F)(F)F)nn1CCCNC(=O)c1cc(-c2ccccc2)nc2ccccc12 [CBK267755] | 85 |
| COc1ccc([N+](=O)[O-])cc1NC(=O)c1cc(-c2cccnc2)nc2ccc(C)cc12 [CBK267757] | 86.8 |

| SMILES | viability at 28.5 h, 10 µM [%] |
| --- | --- |
| O=C(Nc1ccccc1-c1ccccc1)c1cc(-c2ccncc2)nc2ccc(Cl)cc12 [CBK267759] | 95 |
| COc1cccc(CN2CCN(C(=O)c3cc(-c4ccncc4)nc4ccc(C)cc34)CC2)c1 [CBK267760] | 86 |
| CC1CCc2c(sc(NC(=O)c3cc(-c4cccnc4)nc4ccc(Cl)cc34)c2C(N)=O)C1 (stereo not drawn) [CBK267762] | 104 |
| CC(C)c1cc(C(=O)N2CCOCC2)c(NC(=O)c2cc(-c3cccnc3)nc3ccc(Br)cc23)s1 [CBK267763] | 93.7 |
| COc1ccc([N+](=O)[O-])cc1NC(=O)c1cc(-c2ccccc2Cl)nc2ccc(C)cc12 [CBK267764] | 94.1 |
| CCCc1cc(C(N)=O)c(NC(=O)c2cc(-c3ccc(C)o3)nc3ccccc23)s1 [CBK267766C] | 90.9 |
| O=C(NCc1ccccc1)c1cccc(NC(=O)c2cc(-c3ccccn3)nc3ccc(Cl)cc23)c1 [CBK267768] | 94 |
| O=C(NCc1ccccc1)c1cccc(NC(=O)c2cc(-c3ccncc3)nc3ccc(Cl)cc23)c1 [CBK267769] | 117 |
| NS(=O)(=O)c1ccc(CNC(=O)c2cc(-c3ccncc3)nc3ccc(Cl)cc23)cc1 [CBK267770] | 101 |
| CCN(CC)C(=O)c1sc(NC(=O)c2cc(-c3ccncc3)nc3c(C)cccc23)c(C#N)c1C [CBK267771] | 93.6 |
| Cc1cc(C)c2nc(-c3ccccn3)cc(C(=O)Nc3ccc(S(=O)(=O)Nc4onc(C)c4C)cc3)c2c1 [CBK267775] | 92.9 |
| COc1ccc(OC)c(S(=O)(=O)N2CCN(C(=O)c3cc(-c4ccncc4)nc4c(C)cc(C)cc34)CC2)c1 [CBK267778] | 103 |
| COc1ccccc1-c1cc(C(=O)NCCCN2CCOCC2)c2ccccc2n1 [CBK267780] | 83.8 |
| CC(=O)c1ccc(N2CCN(C(=O)c3cc(-c4ccncc4)nc4ccc(Cl)cc34)CC2)cc1 [CBK267781] | 91.8 |
| Cc1ccc2nc(-c3ccccn3)cc(C(=O)NCc3ccccn3)c2c1 [CBK267782] | 86.6 |
| CC(C)(C)NS(=O)(=O)c1ccc(NC(=O)c2cc(-c3ccccn3)nc3c(Cl)cccc23)cc1 [CBK267783] | 99.6 |
| CC(=O)Nc1cc(C(=O)Nc2ccc(Br)cc2)ccc1C [CBK267788] | 84.1 |
| Cc1ccc(O)c(NC(=O)c2cccc(S(=O)(=O)N3CCCCC3)c2)c1 [CBK267790] | 83.3 |
| Cc1cc(Cl)cc(Br)c1OCCNCCN(C)C [CBK267791G] | 102 |
| O=[N+]([O-])c1ccc(-c2ccc(/C=C/c3cc(O)c4ccccc4n3)o2)cc1 [CBK267792] | 92.1 |
| CN(C)S(=O)(=O)c1cccc(C(=O)NCCc2ccccc2)c1 [CBK267793] | 91.3 |

| SMILES | viability at 28.5 h, 10 µM [%] |
| --- | --- |
| O=[N+]([O-])c1cc2c(cc1C(Nc1ccccn1)c1cc(Cl)c3cccnc3c1O)OCO2 (stereo not drawn) [CBK267795] | 83 |
| O=C(Nc1ccccc1[N+](=O)[O-])C1(c2ccccc2)CCN(S(=O)(=O)c2ccccc2)CC1 [CBK267796] | 85.9 |
| O=C(O)c1[nH]c2ccccc2c1C(c1c(F)cccc1Cl)c1c(C(=O)O)[nH]c2ccccc12 [CBK267797] | 87.4 |
| O=C(OCc1ccccc1F)c1cccc(-c2nnc(-c3ccccc3)o2)c1 [CBK267798] | 84.6 |
| O=C(CSCc1c(Cl)cccc1Cl)NN1C(=O)c2ccccc2C1=O [CBK267800] | 101 |
| Cc1ccc(SCCCCn2cnc3ccccc32)cc1 [CBK267801G] | 103 |
| O=C(c1c[nH]c2ccccc12)C(O)C(c1ccccc1)N1CCOCC1 (stereo not drawn) [CBK267802] | 95.4 |
| Cc1ccc(SCCCNCCN(C)C)cc1 [CBK267807C] | 92.2 |
| Cc1cc(Br)cc(C)c1OCCNCCN(C)C [CBK267808G] | 106 |
| O=C(O)c1ccc(NC(=O)c2ccc(S(=O)(=O)N3CCCCC3)cc2)cc1 [CBK267813] | 94.2 |
| O=C(CSCc1c(Cl)cccc1Cl)Nc1ccc(-c2nnc(-c3ccccc3)o2)cc1 [CBK267817] | 99.7 |
| CC(=O)Nc1ccc(S(=O)(=O)Nc2ccc(-c3nc4cc(C(=O)c5ccccc5)ccc4[nH]3)cc2)cc1 [CBK267819] | 99.2 |
| O=[N+]([O-])c1ccccc1OCCCn1cnc2ccccc21 [CBK267820G] | 44.2 |
| Cc1ccc([N+](=O)[O-])c(OCCNCCN(C)C)c1 [CBK267822C] | 89 |
| O=C(NCc1ccc2c(c1)OCO2)c1ccc2c(c1)C(=O)N(Cc1cccnc1)C2=O [CBK267824] | 89.3 |
| Cc1cc(S(=O)(=O)NC2CCCCC2)ccc1OCC(=O)O [CBK267832] | 104 |
| COc1ccc(S(=O)(=O)N(CC(=O)O)c2ccc(Cl)cc2)cc1OC [CBK267836] | 97.5 |
| Clc1ccccc1-c1nnn(Cc2ccc(-c3nnn[nH]3)cc2)n1 [CBK267838] | 89.3 |
